We go through three compounds from paper PMC7754465, “Multiparameter Kinetic Analysis for Covalent Fragment Optimization by Using Quantitative Irreversible Tethering (qIT)” (Chembiochem, 2020).

In this assay the target is T1, Cdk2(ES) = Cdk2(F80C,C177A) (Homo sapiens, UniProt P24941, C177A/F80C).
T1 construct: GST (N, cleaved yes); made in house; host or cells: E. coli Tuner(DE3)
Put plainly: quantitative irreversible tethering (qIT): rate of cysteine modification of Cdk2(ES). It counts as binding. As to conditions: for rate enhancement factor (REF): rate with Cdk2(ES) relative to rate with GSH, thiol 5 μM. As for the experimental part: Figure 2 Comparison of previous and current applications of Quantitative irreversible tethering (qIT). a) Overview of rate determination. A cysteine‐containing biomolecule is treated with covalent fragments under pseudo‐first‐order conditions. Reaction progress is followed by discrete measurement of free cysteine concentration by using the fluorogenic probe CPM, and rate constants (k obs) are derived from exponential regression analysis. b) Comparison of the reactivity profile of each fragment with the POI and GSH typically classes them as unreactive, reactive but non‐selective or reactive and selective. c) Quantification of kinetic POI/GSH selectivity facilitates hit identification. d) The observed rate of reaction between the POI and hit fragment is determined at a range of ligand concentrations by using qIT. Subsequent hyperbolic regression analysis is used to derive K i and k inact to facilitate comprehensive covSAR analysis.
Therefore, we set out to develop novel classes of electrophile sensitive kinase inhibitors using a covalent fragment approach. Accordingly, we screened a 138‐member library of diverse cysteine‐reactive fragments at 500 μM against Cdk2(ES) and GSH by using the qIT platform and monitored the kinetics of cysteine‐modification over 24 hours. […] Using three standard deviations over the geometric mean REF as the statistical cut‐off for defining hit fragments (REF >27.9) yielded two acrylamide fragments, tetrahydroquinoline 1 (REF=81) and pyrimidine S1 (REF=64) for further investigation (Figures 3c and S2). […]
D. Rate determination by qIT
Reaction-plate setup: Each well of a 96-well PCR plate was charged with 60–100 µL of target thiol (GSH or protein, 10 µM) and 4% w/v TCEP-agarose beads in 100 mM phosphate buffer (pH 7.5 or 8) and cooled to 4 °C. Reactions were started by addition of an equal volume of pre-cooled electrophile solution (1 mM, 2% DMSO) in 0.1 M phosphate buffer (final concentra-tion: thiol = 5 µM, electrophile = 0.5 mM, 2% w/v TCEP-agarose beads), with a minimum of 4 wells per plate used as DMSO/thiol only controls. After mixing, TCEP-agarose was pelleted by centrifugation (1,300 rpm, 1 min) and the plate incu-bated at 4 °C. CPM Quench: At a series of time points (typically around 0.25, 0.5, 1, 2, 6, 24, 48, 72 and 120 hours after reac-tion initiation), 3 µL aliquots of each reaction were quenched into a 384-well fluorescence plate (Corning – black, NBS) where each well was charged with 27 µL of CPM solution (1.39 µM) in 100 mM phosphate buffer (pH 7.5) (final concentration: thiol = 0.5 µM, CPM = 1.25 µM). Quenching was typically performed in duplicate and fluorescence plates were incubated at room temperature for 60 minutes before fluorescence intensity (excitation/emission: 384/470 nm) was measured on an EnVisionTM plate reader. Analysis: All analysis was performed using Prism 8.0 software (GraphPad). For each time point, the fluorescence of each reaction was normalized relative Cdk2(ES)/GSH only control = maximum signal, DMSO only = minimum signal. The normalized fluorescence for each reaction was plotted against time. A one phase exponential decay was fitted to each plot (Constraints: Y(0) > 0.8; 0 < plateau = 0), yielding a pseudo first-order rate constant.
Cdk2 mutations were introduced by PCR and cloned into pGEX6P1 Cdk2 (552), a gift from Jonathon Pines (Addgene plasmid # 61845) used to express GST-Cdk2(WT). GST-Cdk2(ES) = GST-Cdk2(F80C,C177A). All constructs were verified by se-quencing. pGEX6P1 cyclin A2 (amino acids 173-432) was generated by PCR and restriction digestion. GST-CAK1 was con-structed by PCR amplification of S.cerevisiae genomic DNA and the product cloned into pKEG-KG. All protein expression was performed using an adapted autoinduction protocol:[8] Plasmids were transformed into E. coli Tuner(DE3) and cultures grown in autoinduction media at 37 °C until OD600 = 0.9. The cultures were then incubated at 18 °C for a further 40 hours before […]

Setting [1] is: fragment 0.5 mM, Cdk2(ES) 5 μM, read-out: Cdk2(ES): kobs/[I].

Where two headings read alike, the source gives them in different places.

With `C=CC(=O)Nc1ccc(-c2ncccn2)cc1` [S1], the “rate enhancement factor (REF)” value (fragment 0.5 mM) came to 64.
With `C=CC(=O)N1CCCc2cc(C(=O)OC)ccc21` [compound 1], the kinact/KI at 500 µM under setting [1] stood at 1.31 M⁻¹ s⁻¹. In addition, for the setting “fragment 0.5 mM”, the “rate enhancement factor (REF)” value worked out at 81.
With `C=CC(=O)N1CCN(CC)c2ccccc21` [compound 6], the kinact/KI at 500 µM by setting is: (Cdk2(ES) (5 μM) + 6 (500 μM), Figure 6c, read-out: kobs/[I] with Cdk2(ES)) 0.105 M⁻¹ s⁻¹; under setting [1], 0.1 M⁻¹ s⁻¹. Also, under “compared with acrylamide 1 or parent analogue”, the “covalent SAR by REF-based qIT analysis” value was “maintained a similar REF”. Moreover, the “rate of reaction with Cdk2(ES) relative to acrylamide 1” value (qIT) was “ten times more slowly than acrylamide 1”.
